Source: patent US8377884B2, “Variants of C-type natriuretic peptides” (Biomarin Pharmaceutical Inc., priority 2007, dated 2013)
Like-named read-outs stand apart in the source and are kept apart here. Numbered stars: 1 amine (or outer) side, 2 acyl side, 3 side chain; on linkers, the order of the positions; unused ones are H or OH. Bridge positions count the residues as written; N and C are the ends. Square brackets hold non-standard residues; d marks the D form. Ends that are not written are not given here. Peptide text beside a SMILES is read from it. PEG2K = polydispersed PEG of number-average molecular weight 2 kDa; X1 = O=C(C(CN[*:1])c1ccccc1)[*:2]

Columns and labels:
Recombinant human NEP = Recombinant human NEP (Homo sapiens, UniProt P08473); test: In vitro neutral endopeptidase (NEP) cleavage assay; conditions: for NEP Cleavage (t1/2, min): pH 7
Sequence of Recombinant human NEP (P08473 whole entry): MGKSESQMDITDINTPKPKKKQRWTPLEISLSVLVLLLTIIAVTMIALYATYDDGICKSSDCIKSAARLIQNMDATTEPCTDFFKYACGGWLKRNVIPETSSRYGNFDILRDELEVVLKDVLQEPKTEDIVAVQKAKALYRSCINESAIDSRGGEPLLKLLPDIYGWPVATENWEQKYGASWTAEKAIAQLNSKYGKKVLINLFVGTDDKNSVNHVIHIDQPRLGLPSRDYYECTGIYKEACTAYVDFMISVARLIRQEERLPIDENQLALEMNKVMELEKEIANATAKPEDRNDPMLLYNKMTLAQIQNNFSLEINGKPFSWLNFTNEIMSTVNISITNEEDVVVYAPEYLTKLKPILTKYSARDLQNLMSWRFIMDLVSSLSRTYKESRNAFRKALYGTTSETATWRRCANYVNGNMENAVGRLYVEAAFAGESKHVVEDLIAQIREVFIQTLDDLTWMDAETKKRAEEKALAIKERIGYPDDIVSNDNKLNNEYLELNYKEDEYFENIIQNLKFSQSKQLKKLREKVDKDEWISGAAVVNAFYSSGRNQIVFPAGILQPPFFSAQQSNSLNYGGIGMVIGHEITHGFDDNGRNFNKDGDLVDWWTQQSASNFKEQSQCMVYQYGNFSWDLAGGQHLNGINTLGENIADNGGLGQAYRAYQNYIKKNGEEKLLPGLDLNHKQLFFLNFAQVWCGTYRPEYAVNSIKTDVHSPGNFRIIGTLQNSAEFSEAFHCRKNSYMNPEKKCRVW
Summary of the method: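 Recombinant human NEP (1 ug/mL final) incubated with 100 uM CNP variant in 0.1 M Tris, pH 7, at 37° C for various times, then quenched with EDTA (10 mM final) and heat. Samples reduced and analysed by HPLC and mass spectrometry. Half-life derived from loss of intact variant over time.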

NPR-B = molecular target: T1, NPR-B (Mus musculus, UniProt Q6VVW5); test: Stimulation of cGMP production in NIH3T3 cells; assay type: cell-based, Murine; conditions: for cGMP response relative to 1 uM CNP22 (%) at 0.01 µM: read-out: cGMP Response rel. to 1 uM CNP22, 10 nM; for cGMP response relative to 1 uM CNP22 (%) at 1 µM: read-out: cGMP Response rel. to 1 uM CNP22, 1 uM
T1 construct: Murine NIH3T3 cells express endogenously the CNP signaling receptor, NPR-B; endogenous in cells; host or cells: NIH3T3 (murine fibroblasts)
T1 sequence (Q6VVW5 17-1047): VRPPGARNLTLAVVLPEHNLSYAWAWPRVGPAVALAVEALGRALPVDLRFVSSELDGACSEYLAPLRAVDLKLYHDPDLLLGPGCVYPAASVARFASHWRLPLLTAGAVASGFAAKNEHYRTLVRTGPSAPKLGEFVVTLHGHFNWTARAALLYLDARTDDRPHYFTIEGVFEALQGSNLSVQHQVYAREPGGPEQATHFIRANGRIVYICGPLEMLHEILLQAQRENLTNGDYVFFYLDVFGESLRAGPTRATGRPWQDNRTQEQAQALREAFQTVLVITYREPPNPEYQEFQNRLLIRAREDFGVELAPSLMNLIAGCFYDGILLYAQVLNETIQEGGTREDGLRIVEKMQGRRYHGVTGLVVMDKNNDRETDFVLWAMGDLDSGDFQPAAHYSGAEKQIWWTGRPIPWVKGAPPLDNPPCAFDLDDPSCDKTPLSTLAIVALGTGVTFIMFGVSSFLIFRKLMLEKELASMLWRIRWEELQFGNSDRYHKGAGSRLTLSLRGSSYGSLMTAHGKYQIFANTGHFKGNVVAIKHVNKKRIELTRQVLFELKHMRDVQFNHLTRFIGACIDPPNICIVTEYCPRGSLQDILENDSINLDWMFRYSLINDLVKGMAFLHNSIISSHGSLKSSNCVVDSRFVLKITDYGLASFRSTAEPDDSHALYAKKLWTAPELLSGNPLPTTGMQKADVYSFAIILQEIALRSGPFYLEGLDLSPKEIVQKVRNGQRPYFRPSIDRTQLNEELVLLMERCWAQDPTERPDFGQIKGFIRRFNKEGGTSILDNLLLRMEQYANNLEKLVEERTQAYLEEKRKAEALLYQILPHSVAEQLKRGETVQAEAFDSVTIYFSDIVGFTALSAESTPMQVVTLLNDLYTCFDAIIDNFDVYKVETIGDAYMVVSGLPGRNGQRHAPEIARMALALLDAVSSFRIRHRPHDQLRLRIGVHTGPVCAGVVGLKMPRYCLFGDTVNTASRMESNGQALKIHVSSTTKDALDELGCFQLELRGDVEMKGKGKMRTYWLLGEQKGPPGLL

[1] = NIH3T3 cells, 10 nM natriuretic peptide, normalized to cell number and cGMP production with 1 uM wtCNP22
[2] = NIH3T3 cells, 1 uM natriuretic peptide, normalized to cell number and cGMP production with 1 uM wtCNP22

cGMP response relative to 1 uM CNP22 (%) at 0.01 µM (NPR-B; [1]) [%]	cGMP response relative to 1 uM CNP22 (%) at 1 µM (NPR-B; [2]) [%]	Molecule	resistance to NEP cleavage/degradation (in words) (Recombinant human NEP)	further results
36	84	CC[C@H](C)[C@@H]1NC(=O)[C@H](CCCNC(=N)N)NC(=O)[C@H](CC(=O)O)NC(=O)[C@H](CC(C)C)NC(=O)[C@H](CCCCN)NC(=O)[C@H](CC(C)C)NC(=O)CNC(=O)[C@H](Cc2ccccc2)NC(=O)[C@@H](NC(=O)CNC(=O)[C@H](CCCCN)NC(=O)[C@H](CO)NC(=O)[C@H](CC(C)C)NC(=O)CNC(=O)[C@H](CCCNC(=N)N)NC(=O)[C@H](C)NC(=O)[C@H](CC(N)=O)NC(=O)[C@@H]2CCCN2C(=O)[C@H](Cc2c[nH]cn2)NC(=O)[C@H](CCC(=O)O)NC(=O)[C@H](CCC(N)=O)NC(=O)[C@H](CC(C)C)NC(=O)[C@H](CC(C)C)NC(=O)[C@H](CCCNC(=N)N)NC(=O)[C@H](C)NC(=O)[C@H](Cc2c[nH]c3ccccc23)NC(=O)[C@H](C)NC(=O)[C@H](C)N)CSSC[C@@H](C(=O)O)NC(=O)CNC(=O)[C@H](CC(C)C)NC(=O)CNC(=O)[C@H](CO)NC(=O)[C@H](CCSC)NC(=O)[C@H](CO)NC(=O)CNC1=O [CB] (H-AAWARLLQEHPNARGLSKGCFGLKLDRIGSMSGLGC-OH; disulfide 20-36 (inferred); N-terminus and C-terminus assumed)	much more resistant to NEP cleavage than CNP22	–
25	102	CC[C@H](C)[C@@H]1NC(=O)[C@H](CCCNC(=N)N)NC(=O)[C@H](CC(=O)O)NC(=O)[C@H](CC(C)C)NC(=O)[C@H](CCCCN)NC(=O)[C@H](CC(C)C)NC(=O)CNC(=O)[C@H](Cc2ccccc2)NC(=O)[C@@H](NC(=O)CNC(=O)[C@H](CO)NC(=O)CNC(=O)[C@H](CCC(N)=O)NC(=O)[C@@H](NC(=O)[C@H](CCSC)NC(=O)[C@H](CCCCN)NC(=O)[C@@H]2CCCN2C(=O)[C@@H](N)CO)C(C)C)CSSC[C@@H](C(=O)N[C@@H](CCCCN)C(=O)N[C@H](C(=O)N[C@@H](CC(C)C)C(=O)N[C@@H](CCCNC(=N)N)C(=O)N[C@@H](CCCNC(=N)N)C(=O)N[C@@H](Cc2c[nH]cn2)C(=O)O)C(C)C)NC(=O)CNC(=O)[C@H](CC(C)C)NC(=O)CNC(=O)[C@H](CO)NC(=O)[C@H](CCSC)NC(=O)[C@H](CO)NC(=O)CNC1=O [CD] (H-SPKMVQGSGCFGLKLDRIGSMSGLGCKVLRRH-OH; disulfide 10-26 (inferred); N-terminus and C-terminus assumed)	much more resistant to NEP cleavage than CNP22	–

The remaining lines, values behind:

Molecule	cGMP response relative to 1 uM CNP22 (%) at 0.01 µM (NPR-B; [1]) [%]	cGMP response relative to 1 uM CNP22 (%) at 1 µM (NPR-B; [2]) [%]	resistance to NEP cleavage/degradation (in words) (Recombinant human NEP)	further results
CC[C@H](C)[C@@H]1NC(=O)[C@H](CCCNC(=N)N)NC(=O)[C@H](CC(=O)O)NC(=O)[C@H](CC(C)C)NC(=O)[C@H](CCCCN)NC(=O)[C@H](CC(C)C)NC(=O)CNC(=O)[C@H](Cc2ccccc2)N(C)C(=O)[C@@H](NC(=O)CNC(=O)[C@H](CCCCN)NC(=O)[C@H](CO)NC(=O)[C@H](CC(C)C)NC(=O)CN)CSSC[C@@H](C(=O)O)NC(=O)CNC(=O)[C@H](CC(C)C)NC(=O)CNC(=O)[C@H](CO)NC(=O)[C@H](CCSC)NC(=O)[C@H](CO)NC(=O)CNC1=O [B]	–	–	–	resistance to cleavage at the Cys6-Phe7 bond relative to wtCNP22 (Recombinant human NEP; data not shown): resistance or improved resistance; resistance to cleavage of the Gly8-Leu9 bond (Recombinant human NEP; in the presence of 1 ug/mL NEP, data not shown): exhibited resistance; cGMP response relative to 1 uM CNP22 (%) at 0.01 µM (NPR-B; NIH3T3, […]): 2%; cGMP response relative to 1 uM CNP22 (%) at 1 µM (NPR-B; NIH3T3, […]): 38%
CC[C@H](C)[C@@H]1NC(=O)[C@H](CCCNC(=N)N)NC(=O)[C@H](CC(=O)O)NC(=O)[C@H](CC(C)C)NC(=O)[C@H](CCCCN)NC(=O)[C@H](CC(C)C)NC(=O)CNC(=O)[C@H](Cc2ccccc2)NC(=O)[C@@H](NC(=O)CNC(=O)[C@H](CCCCN)NC(=O)[C@H](CO)NC(=O)[C@H](CC(C)C)NC(=O)CNC(=O)[C@H](C)NC(=O)[C@H](CC(N)=O)NC(=O)[C@@H]2CCCN2C(=O)[C@H](Cc2c[nH]cn2)NC(=O)[C@H](CCC(=O)O)NC(=O)[C@H](CCC(N)=O)NC(=O)[C@H](CC(C)C)NC(=O)[C@H](CC(C)C)NC(=O)[C@H](CCCNC(=N)N)NC(=O)[C@H](C)NC(=O)[C@H](Cc2c[nH]c3ccccc23)NC(=O)[C@H](C)NC(=O)[C@H](C)N)CSSC[C@@H](C(=O)O)NC(=O)CNC(=O)[C@H](CC(C)C)NC(=O)CNC(=O)[C@H](CO)NC(=O)[C@H](CCSC)NC(=O)[C@H](CO)NC(=O)CNC1=O [CA] (H-AAWARLLQEHPNAGLSKGCFGLKLDRIGSMSGLGC-OH; disulfide 19-35 (inferred); N-terminus and C-terminus assumed)	24	76	much more resistant to NEP cleavage than CNP22	–
CC[C@H](C)[C@@H]1NC(=O)[C@H](CCCNC(=N)N)NC(=O)[C@H](CC(=O)O)NC(=O)[C@H](CC(C)C)NC(=O)[C@H](CCCCN)NC(=O)[C@H](CC(C)C)NC(=O)CNC(=O)[C@H](Cc2ccccc2)NC(=O)[C@@H](NC(=O)CNC(=O)[C@H](CCCCN)NC(=O)[C@H](CO)NC(=O)[C@H](CC(C)C)NC(=O)CNC(=O)[C@H](CCC(N)=O)NC(=O)[C@H](CO)NC(=O)[C@H](CC(C)C)NC(=O)[C@H](CCCNC(=N)N)NC(=O)[C@H](C)NC(=O)[C@@H](NC(=O)[C@H](C)NC(=O)[C@H](Cc2c[nH]c3ccccc23)NC(=O)[C@H](C)NC(=O)[C@H](CCCCN)NC(=O)[C@H](Cc2ccccc2)NC(=O)[C@H](C)NC(=O)[C@H](CCCNC(=N)N)NC(=O)[C@H](CCC(=O)O)NC(=O)CN)C(C)C)CSSC[C@@H](C(=O)O)NC(=O)CNC(=O)[C@H](CC(C)C)NC(=O)CNC(=O)[C@H](CO)NC(=O)[C@H](CCSC)NC(=O)[C@H](CO)NC(=O)CNC1=O [CE] (H-GERAFKAWAVARLSQGLSKGCFGLKLDRIGSMSGLGC-OH; disulfide 21-37 (inferred); N-terminus and C-terminus assumed)	15	87	much more resistant to NEP cleavage than CNP22	–
CC[C@H](C)[C@@H]1NC(=O)[C@H](CCCNC(=N)N)NC(=O)[C@H](CC(=O)O)NC(=O)[C@H](CC(C)C)NC(=O)[C@H](CCCCN)NC(=O)[C@H](CC(C)C)NC(=O)CNC(=O)C(c2ccccc2)CNC(=O)[C@@H](NC(=O)CNC(=O)[C@H](CCCCN)NC(=O)[C@H](CO)NC(=O)[C@H](CC(C)C)NC(=O)CN)CSSC[C@@H](C(=O)O)NC(=O)CNC(=O)[C@H](CC(C)C)NC(=O)CNC(=O)[C@H](CO)NC(=O)[C@H](CCSC)NC(=O)[C@H](CO)NC(=O)CNC1=O (stereo partly shown) [H] (H-GLSKGC[X1]GLKLDRIGSMSGLGC-OH; disulfide 6-22; N-terminus and C-terminus assumed)	–	–	–	resistance to cleavage at the Cys6-Phe7 bond relative to wtCNP22 (Recombinant human NEP): resistance or improved resistance
DLRVDTKSRAAWARLLQEHPNARKYKGANKKGLSKGCFGLKLDRIGSMSGLGC (disulfide 37-53 (inferred)) [Analog BM]	–	–	resistant to NEP degradation	–
PEG1K-CNP22: CNP22 conjugated at the N-terminus to polydispersed PEG1K	–	–	–	NEP Cleavage (t1/2, min) (Recombinant human NEP): >>160 min; cGMP Response rel. to 1 uM CNP22, 10 nM (NPR-B; [1]): 15 ± 3; cGMP Response rel. to 1 uM CNP22, 1 uM (NPR-B; [2]): 68 ± 17
PEG2K-CNP22(K4G): CNP22 having a K4G substitution, N-terminal PEGylated with PEG2K (PEG2K-GLSGGCFGLKLDRIGSMSGLGC; disulfide 6-22 (inferred); UniProt P23582 105-126, looked up, variant K4G)	–	–	only slightly more resistant to NEP cleavage than CNP22	–
PEG2K-CNP22: CNP22 conjugated at the N-terminus to polydispersed PEG2K	–	–	–	NEP Cleavage (t1/2, min) (Recombinant human NEP): >>160 min; cGMP Response rel. to 1 uM CNP22, 10 nM (NPR-B; [1]): 6 ± 2; cGMP Response rel. to 1 uM CNP22, 1 uM (NPR-B; [2]): 32 ± 4
